Patent US9050295B2, “Composition for treatment of tuberculosis” (ETH Zurich, priority 2007, dated 2015)
Entries after “also recorded” stand apart in the source; their conditions may differ.

Tests used:
M. tuberculosis H37Rv = format: cell-based
M. bovis BCG = format: cell-based
E-ETR interaction = experiment: Specificity control ELISA, macrolide-dependent repressor E and operator ETR; format: binding; conditions: ELISA set-up as FIG. 2B
Description: To exclude that 2-phenylethyl butyrate indiscriminatingly modulates protein-DNA interactions the macrolide-dependent repressor-operator configuration is challenged with this compound in an identical ELISA set-up as shown in FIG. 2B. The E-ETR interaction is insensitive to 2-phenylethyl butyrate (PEB) and can exclusively be abolished in the presence of erythromycin (EM, 5 μg/ml).
The repressor protein E binds to its cognate operator sequence ETR and is released thereof in the presence of macrolide antibiotics like erythromycin as described in U.S. Pat. No. 7,273,723.
EthR-his6 is produced as previously described for E-his6 [Weber, C. C. et al., supra] with the exception that the biotinylated operator sequence (OethR) is incubated with a 100 μl streptavidin agarose bead suspension (Novagen, Madison, Wis., USA, cat. no. 69203) for 1 h at 4° C. while rotating.

[1] = molecular target: T1, EthR-VP16 binding to OethR (Mycobacterium bovis, UniProt Q7TVI1); experiment: cell-based; format: cell-based, M. tuberculosis
[2] = mouse, in vivo, ip
EthR-OethR interaction = EthR-OethR interaction (Mycobacterium bovis, UniProt Q7TVI1); format: binding, M. tuberculosis; conditions: ELISA, E. coli cell lysate, OD450
[3] = molecular target: T1, EthR-VP16 binding to OethR; format: in vivo; conditions: mice, 625 μl/kg injected 1 and 25 h post implantation, serum at 48 h
HEK-293 = HEK-293 with constitutive SEAP expression, 0-3.2 mM, 48 h
[4] = HEK-293 with EthR-based gene circuit, 0-3.2 mM, 48 h

T1 sequence (Q7TVI1 whole entry, looked up): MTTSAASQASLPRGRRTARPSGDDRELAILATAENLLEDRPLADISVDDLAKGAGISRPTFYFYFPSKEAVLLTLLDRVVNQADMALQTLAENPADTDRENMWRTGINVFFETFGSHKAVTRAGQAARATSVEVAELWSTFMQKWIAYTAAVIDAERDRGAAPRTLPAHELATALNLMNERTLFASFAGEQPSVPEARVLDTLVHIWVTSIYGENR
Sequence of EthR-OethR interaction (Q7TVI1 whole entry, looked up): as above

## CCCC(=O)OCCc1ccccc1 [2-Phenylethyl butyrate]
M. tuberculosis H37Rv
  growth inhibition of M. tuberculosis H37Rv in combination with ethionamide: dose-dependently inhibited; also recorded: Synergistic effect
  growth inhibitory effect alone, M. tuberculosis H37Rv: does not show any growth inhibitory effect
M. bovis BCG; 0.5 and 2 mM with sub-inhibitory ethionamide 0.25 and 0.5 μg/ml
  growth inhibition of M. bovis BCG in combination with ethionamide: dose-dependently inhibited; also recorded: Synergistic effect
M. bovis BCG; without ethionamide
  growth inhibitory effect alone, M. bovis BCG: does not show any growth inhibitory effect
E-ETR interaction; 2-phenylethyl butyrate
  E-ETR interaction: insensitive
[1]
  IC50: 500 µM
[1]; [4]
  SEAP expression: significant decrease in SEAP expression
[2]
  inflammation at the injection site: no inflammation at the injection site
EthR-OethR interaction
  modulation of the EthR-OethR interaction: exclusively and specifically modulates the EthR-OethR interaction
[3]
  SEAP serum levels: 0.21±0.03 U/L

## CCC(=O)OCCCc1ccccc1 [3-Phenylpropyl propionate]
[1]; [4]
  SEAP expression: significant decrease in SEAP expression

## CC(=O)CCc1ccccc1 [4-Phenyl-2-butanone]
[1]; [4]
  SEAP expression: significant decrease in SEAP expression
HEK-293
  cytotoxicity: does not correlate with cytotoxicity

## CC(=O)OCc1ccccc1 [Benzyl acetate]
[1]; [4]
  SEAP expression: significant decrease in SEAP expression

## CCCCCCCCCCCCCCCCOC(=O)CCCCCCC [Hexadecyl octanoate, reference compound]
[1]; HEK-293 containing pWW489 and pWW491, 10 mM
  SEAP expression: fails to decrease SEAP expression

## CC[C@H]1OC(=O)[C@H](C)[C@@H](O[C@H]2C[C@@](C)(OC)[C@@H](O)[C@H](C)O2)[C@H](C)[C@@H](O[C@@H]2O[C@H](C)C[C@H](N(C)C)[C@H]2O)[C@](C)(O)C[C@@H](C)C(=O)[C@H](C)[C@@H](O)[C@]1(C)O [erythromycin, reference compound]
E-ETR interaction; 5 μg/ml
  E-ETR interaction: abolished
